How the values were obtained:
[1] = target: GSK3β (Homo sapiens (Human), UniProt P49841); experiment: GSK3β kinase assay (Caliper LabChip, fluoresceinated peptide substrate); assay type: biochemical; conditions: 250 pM enzyme, 20 uM ATP, 1.5 uM peptide, 20 hours room temperature; read-out: GSK3β IC50 (first value of GSK3β/GSK3α)
Procedure: The kinase assay was performed in V-bottom 384-well plates. […] The reaction was incubated at room temperature for 20 hours and terminated by adding 45 μl of 35 mM EDTA to each sample. The reaction mixture was analyzed on the Caliper LabChip3000 (Caliper, Hopkinton, Mass.) by electrophoretic separation of the unphosphorylated substrate and phosphorylated product. […] Compounds were dissolved at 10 mM in dimethylsulfoxide (DMSO) and evaluated at eleven concentrations. IC50 values were derived by non-linear regression analysis.

[2] = target: GSK3α (Homo sapiens (Human), UniProt P49840); experiment: GSK3α kinase assay (Caliper LabChip, fluoresceinated peptide substrate); assay type: biochemical; conditions: 250 pM enzyme, 20 uM ATP, 1.5 uM peptide, 20 hours room temperature; read-out: GSK3α IC50 (second value of GSK3β/GSK3α)
Chain of GSK3α (P49840 whole entry, species assumed): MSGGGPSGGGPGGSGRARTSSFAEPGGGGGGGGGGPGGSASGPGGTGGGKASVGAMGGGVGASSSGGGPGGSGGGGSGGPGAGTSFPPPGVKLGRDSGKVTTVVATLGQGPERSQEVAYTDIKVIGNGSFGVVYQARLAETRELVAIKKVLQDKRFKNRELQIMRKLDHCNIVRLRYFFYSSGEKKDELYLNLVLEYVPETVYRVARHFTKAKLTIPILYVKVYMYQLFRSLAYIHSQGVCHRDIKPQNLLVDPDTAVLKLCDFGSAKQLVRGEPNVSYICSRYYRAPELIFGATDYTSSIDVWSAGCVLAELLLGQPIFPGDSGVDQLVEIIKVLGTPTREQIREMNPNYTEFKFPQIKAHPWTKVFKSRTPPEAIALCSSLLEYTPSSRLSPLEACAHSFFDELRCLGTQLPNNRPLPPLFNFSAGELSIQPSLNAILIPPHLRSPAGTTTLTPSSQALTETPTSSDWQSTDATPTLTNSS
Text: IC50 values were derived by non-linear regression analysis.

[3] = tested on: pTau; experiment: pTau assay; assay type: cell-based

Chain of GSK3β (P49841 whole entry, species assumed): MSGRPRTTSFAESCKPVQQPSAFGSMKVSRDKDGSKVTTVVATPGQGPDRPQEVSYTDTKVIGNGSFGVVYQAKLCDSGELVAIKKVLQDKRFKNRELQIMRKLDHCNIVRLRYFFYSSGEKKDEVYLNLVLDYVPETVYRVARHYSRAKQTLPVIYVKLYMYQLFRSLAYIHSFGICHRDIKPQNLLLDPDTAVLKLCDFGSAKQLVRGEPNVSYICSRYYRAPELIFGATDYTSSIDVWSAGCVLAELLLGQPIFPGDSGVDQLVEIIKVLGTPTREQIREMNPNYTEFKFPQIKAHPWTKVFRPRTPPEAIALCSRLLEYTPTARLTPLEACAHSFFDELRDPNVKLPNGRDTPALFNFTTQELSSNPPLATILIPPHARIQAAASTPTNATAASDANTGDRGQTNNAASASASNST

CC(C)Oc1ccncc1NC(=O)c1ccnn2c(NC(=O)C3CCC3)cnc12 [Example 47, 3-(Cyclobutanecarboxamido)-N-(4-isopropoxypyridin-3-yl)imidazo[1,2-b]pyridazine-8-carboxamide]
IC50 [1]: 140 nM
IC50 [2]: 110 nM
IC50 [3]: 6800 nM
